Measured values as given in patent US20090023184A1, “Novel Tachykinin Peptides, Precursor Peptides Thereof And Genes Encoding The Same” (SUNTORY LIMITED, priority 1999, published 2009).

Legend:
rectum of the carp = assay: Measurement of the rectum constricting activity of the carp (isolated intestine, tension recording); format: cell-based; conditions: added to the chamber with the amount corresponding to one head of Octopus vulgaris; FIGS. 3 and 4
Description: (§1) The rectum constricting activity of the carp was performed as follow. That is, the intestine of the carp was excised, and the both ends thereof were fastened with a cotton thread. Then, one end thereof was fixed to a sample chamber (2 ml capacity) and another end was fixed to a transducer to obtain a specimen for the examination. The samples to be measured were dissolved into the physiological saline solution, and added to the sample chamber. The changes of tension of the intestine by constriction were recorded.

ileum of the guinea pig = assay: Measurement of the ileum constricting activity of the guinea pig (isolated ileum, tension recording); format: cell-based; conditions: concentration of 1×10^−8 M in chamber, 37° C. physiological saline; FIGS. 5 and 6
Description: The ileum constricting activity of the guinea pig was performed in accordance with a method by Champagne et al. (Champagne D. E. et al., Proc. Natl. Acad. Sci. USA., 91, 138-142, 1994).
as §1, with “ileum” for “rectum constricting activity”, “guinea pig” for “carp was performed as follow. That is, the intestine of the carp”, “(5” for “(2”, “examination. The inside of the sample chamber was maintained constantly with 37° C. physiological saline.” for “examination.”, “ileum” for “intestine”

| Substance | constricting activity against the rectum of the carp (rectum of the carp) | constricting activity against the ileum of the guinea pig (ileum of the guinea pig) |
| --- | --- | --- |
| H-Lys-Pro-Pro-Ser-Ser-Ser-Glu-Phe-Ile-Gly-Leu-Met-NH2 (H-KPPSSSEFIGLM-NH2) [Compound (2), tachykinin neuropeptide of Octopus vulgaris posterior salivary gland, isolated from Fraction B and also synthesized] | constricted strongly | constricted strongly |
| H-Lys-Pro-Pro-Ser-Ser-Ser-Glu-Phe-Val-Gly-Leu-Met-NH2 (H-KPPSSSEFVGLM-NH2) [Compound (1), tachykinin neuropeptide of Octopus vulgaris posterior salivary gland, isolated from Fraction A and also synthesized] | constricted strongly | constricted strongly |
